Patent US11179347B2, “Hydrocarbon oil for a therapeutic use” (TOTAL MARKETING SERVICES, priority 2017, dated 2021)
Marks after values point to notes of the source that are not given here.

How the values were obtained:
HaCaT cells [1] = experiment: Production of reactive oxygen species in HaCat cells incubated with oil then preservative (POE or MIT); format: cell-based
Protocol: Preservatives, used as an additive in pharmaceutical compositions, were evaluated. The preservatives evaluated are phenoxyethanol (POE) and methylisothiazolinone (MIT).
For this test, the HaCat cells are incubated with the oils A or B (for example for 15 minutes for the test with POE) then with the preservative POE or MIT (for example for 30 minutes with a solution of phenoxyethanol at 250 μg/mL).

HaCaT cells [2] = experiment: Condensation of the chromatin, HOECHST 33342 test, HaCat cells with or without benzalkonium chloride; format: cell-based; settings: one hour with oil or CM, then 20 minutes benzalkonium chloride (BAC) 8 ppm by weight
Protocol: The following standards and methods were used to measure the properties hereinabove: • flash point: EN ISO 2719 • density at 15° C.: EN ISO 1185 • viscosity at 40° C.: EN ISO 3104 • aniline point: EN ISO 2977 • boiling point: ASTM D86 • biodegradability: OECD method 306 • refractive index at 20° C.: ASTM D 1218 • vapour pressure: calculated according to methods well known to those skilled in the art Tests on the Cellular Effects Preparation of the Tests: • Preparation of the microplates: 24 hours before the incubation with the oils A and B, the HaCaT cells are inoculated with a cell density of 100,000 cells/ml in 96-well microplates (Corning). The microplates are then placed in the incubator at 37° C. In a microplate, each condition was tested at least three times. Each experiment was carried out at least three times independently in order to validate the reproducibility of the results and to carry out statistical analyses. • Incubation of cells with the oils A or B: two durations of incubation were selected for the products to be tested pure: an incubation for fifteen minutes and an incubation for one hour. […]
The measurement of the condensation of the chromatin expressed as a percentage relative to the culture medium (CM) is indicated in table 3 hereinbelow.

Cn1sccc1=O [MIT, methylisothiazolinone]
Production of reactive oxygen species (% relative to the CM) (HaCaT cells [1]; with preservative methylisothiazolinone (MIT), after incubation with oil or CM): 135 % relative to the CM

phenoxyethanol [CM + POE]
Production of reactive oxygen species (% relative to the CM) (HaCaT cells [1]; with preservative phenoxyethanol (POE) 250 μg/mL 30 minutes, after 15 minutes with oil or CM): 132 % relative to the CM

benzalkonium chloride [CM + BAC]
Measurement of the condensation of the chromatin (% relative to the CM) (HaCaT cells [2]): 138*** % relative to the CM
